Data on 25 compounds can be found in US20100311714A1, “1H-IMIDAZO[4,5-c]QUINOLINONE COMPOUNDS” (priority 2009, published 2010).

pIC50: −log10 of the molar value.

In this test the test system is PKB Ser473 phosphorylation in Rat1-myr-HA-p110 beta cells. The test is described as follows: Reverse protein array, PKB Ser473 phosphorylation in Rat1-myr-HA-p110 beta cells. The class given is cell-based. The conditions noted are these: Rattus norvegicus, 0.5 h, 30 minutes compound incubation, read-out: p-PKB/IC50_beta.
As to `CNC(=O)c1ccc(-c2ccc3ncc4c(c3c2)n(-c2cccnc2C)c(=O)n4C)cc1` [Example 2.4, N-Methyl-4-[3-methyl-1-(2-methyl-pyridin-3-yl)-2-oxo-2,3-dihydro-1H-imidazo[4,5-c]quinolin-8-yl]-benzamide], the pIC50 was 7.83.
The figure for `Cc1ncccc1-n1c(=O)n(C)c2cnc3ccc(-c4cnc5[nH]ccc5c4)cc3c21` [Example 2.8, 3-Methyl-1-(2-methyl-pyridin-3-yl)-8-(1H-pyrrolo[2,3-b]pyridin-5-yl)-1,3-dihydro-imidazo[4,5-c]quinolin-2-one] is 8.02.
The figure for `COCc1ncc(-c2ccc3ncc4c(c3c2)n(-c2cccnc2C)c(=O)n4C)cc1OC` [Example 2.30, 8-(5-Methoxy-6-methoxymethyl-pyridin-3-yl)-3-methyl-1-(2-methyl-pyridin-3-yl)-1,3-dihydro-imidazo[4,5-c]quinolin-2-one] is 6.86; for `Cn1c(=O)n(-c2cccnc2F)c2c3cc(-c4cnc5[nH]ccc5c4)ccc3ncc21` [Example 6.3, 1-(2-Fluoro-pyridin-3-yl)-3-methyl-8-(1H-pyrrolo[2,3-b]pyridin-5-yl)-1,3-dihydro-imidazo[4,5-c]quinolin-2-one] it is 7.85.
As for `Cc1nc(F)ccc1-n1c(=O)n(C)c2cnc3ccc(-c4cncc(N5CCC5)c4)cc3c21` [Example 7.6, 8-(5-Azetidin-1-yl-pyridin-3-yl)-1-(6-fluoro-2-methyl-pyridin-3-yl)-3-methyl-1,3-dihydro-imidazo[4,5-c]quinolin-2-one], the figure is 7.64.
Regarding `COCc1ncc(-c2ccc3ncc4c(c3c2)n(-c2ccc(F)nc2C)c(=O)n4C)cc1OC` [Example 7.7, 1-(6-Fluoro-2-methyl-pyridin-3-yl)-8-(5-methoxy-6-methoxymethyl-pyridin-3-yl)-3-methyl-1,3-dihydro-imidazo[4,5-c]quinolin-2-one], the pIC50 is 6.56.
With `COc1cc(-c2ccc3ncc4c(c3c2)n(-c2ccc(F)nc2C)c(=O)n4C)cnc1CO` [Example 7.10, 1-(6-Fluoro-2-methyl-pyridin-3-yl)-8-(6-hydroxymethyl-5-methoxy-pyridin-3-yl)-3-methyl-1,3-dihydro-imidazo[4,5-c]quinolin-2-one], the pIC50 was 7.02.
As for `COc1ccc(-n2c(=O)n(C)c3cnc4ccc(-c5cncc(N6CCC6)c5)cc4c32)c(OC)n1` [Example 8.11, 8-(5-Azetidin-1-yl-pyridin-3-yl)-1-(2,6-dimethoxy-pyridin-3-yl)-3-methyl-1,3-dihydro-imidazo[4,5-c]quinolin-2-one], the figure is 7.77; as for `COc1ccc(-n2c(=O)n(C)c3cnc4ccc(-c5cnc(C(OC)OC)c(OC)c5)cc4c32)c(OC)n1` [Example 8.13, 8-(6-Dimethoxymethyl-5-methoxy-pyridin-3-yl)-1-(2,6-dimethoxy-pyridin-3-yl)-3-methyl-1,3-dihydro-imidazo[4,5-c]quinolin-2-one], 6.67.
Take `COc1ccc(-n2c(=O)n(C)c3cnc4ccc(-c5cnc(CO)c(OC)c5)cc4c32)c(OC)n1` [Example 8.14, 1-(2,6-Dimethoxy-pyridin-3-yl)-8-(6-hydroxymethyl-5-methoxy-pyridin-3-yl)-3-methyl-1,3-dihydro-imidazo[4,5-c]quinolin-2-one]: the pIC50 was 7.25.
`COc1cc(-c2ccc3ncc4c(c3c2)n(-c2ccc(N3CC(F)(F)C3)nc2C)c(=O)n4C)cnc1CO` [Example 24.4, 1-[6-(3,3-Difluoro-azetidin-1-yl)-2-methyl-pyridin-3-yl]-8-(6-hydroxymethyl-5-methoxy-pyridin-3-yl)-3-methyl-1,3-dihydro-imidazo[4,5-c]quinolin-2-one]: the pIC50 is 7.36.
Take `COc1cc(-c2ccc3ncc4c(c3c2)n(-c2ccc(N3CCCC3)nc2C)c(=O)n4C)cnc1CO` [Example 25.4, 8-(6-Hydroxymethyl-5-methoxy-pyridin-3-yl)-3-methyl-1-(2-methyl-6-pyrrolidin-1-yl-pyridin-3-yl)-1,3-dihydro-imidazo[4,5-c]quinolin-2-one]: the pIC50 is 7.75.
The figure for `CCNc1cc(-c2ccc3ncc4c(c3c2)n(-c2ccc(N3CCCC3)nc2C)c(=O)n4C)cnc1CO` [Example 25.5, 8-(5-Ethylamino-6-hydroxymethyl-pyridin-3-yl)-3-methyl-1-(2-methyl-6-pyrrolidin-1-yl-pyridin-3-yl)-1,3-dihydro-imidazo[4,5-c]quinolin-2-one] is greater than 8.34; for `CCNc1cc(-c2ccc3ncc4c(c3c2)n(-c2ccc(N(C)CCO)nc2C)c(=O)n4C)cnc1CO` [Example 26.3, 8-(5-Ethylamino-6-hydroxymethyl-pyridin-3-yl)-1-{6-[(2-hydroxy-ethyl)-methyl-amino]-2-methyl-pyridin-3-yl}-3-methyl-1,3-dihydro-imidazo[4,5-c]quinolin-2-one] it is 8.16.
The figure for `Cc1nc(N2CCC(O)C2)ccc1-n1c(=O)n(C)c2cnc3ccc(-c4cnc(N)c(C(F)(F)F)c4)cc3c21` (stereo not shown) [Example 27.3, 8-(6-Amino-5-trifluoromethyl-pyridin-3-yl)-1-[6-(3-hydroxy-pyrrolidin-1-yl)-2-methyl-pyridin-3-yl]-3-methyl-1,3-dihydro-imidazo[4,5-c]quinolin-2-one] is 8.07; for `CCOc1ccc(-c2ccc3ncc4c(c3c2)n(-c2ccc(N3CCC(O)C3)nc2C)c(=O)n4C)cn1` (stereo not shown) [Example 27.4, 8-(6-Ethoxy-pyridin-3-yl)-1-[6-(3-hydroxy-pyrrolidin-1-yl)-2-methyl-pyridin-3-yl]-3-methyl-1,3-dihydro-imidazo[4,5-c]quinolin-2-one] it is 7.69; for `Cc1nc(N2CCC(O)C2)ccc1-n1c(=O)n(C)c2cnc3ccc(-c4cncc(C(C)(C)O)c4)cc3c21` (stereo not shown) [Example 27.5, 8-[5-(1-Hydroxy-1-methyl-ethyl)-pyridin-3-yl]-1-[6-(3-hydroxy-pyrrolidin-1-yl)-2-methyl-pyridin-3-yl]-3-methyl-1,3-dihydro-imidazo[4,5-c]quinolin-2-one] it is 6.71.
With `CNc1ncc(-c2ccc3ncc4c(c3c2)n(-c2ccc(N3CCC(OC)C3)nc2C)c(=O)n4C)cn1` (stereo not shown) [Example 28.2, 1-[6-(3-Methoxy-pyrrolidin-1-yl)-2-methyl-pyridin-3-yl]-3-methyl-8-(2-methylamino-pyrimidin-5-yl)-1,3-dihydro-imidazo[4,5-c]quinolin-2-one], the pIC50 is 8.13.
`COc1cc(-c2ccc3ncc4c(c3c2)n(-c2ccc(N3CCC(OC)C3)nc2C)c(=O)n4C)cnc1CO` (stereo not shown) [Example 28.3, 8-(6-Hydroxymethyl-5-methoxy-pyridin-3-yl)-1-[6-(3-methoxy-pyrrolidin-1-yl)-2-methyl-pyridin-3-yl]-3-methyl-1,3-dihydro-imidazo[4,5-c]quinolin-2-one]: the pIC50 was 7.35.
As for `Cc1nc(N2CC(O)C2)ccc1-n1c(=O)n(C)c2cnc3ccc(-c4cncc(C(C)(C)O)c4)cc3c21` [Example 29.1, 1-[6-(3-Hydroxy-azetidin-1-yl)-2-methyl-pyridin-3-yl]-8-[5-(1-hydroxy-1-methyl-ethyl)-pyridin-3-yl]-3-methyl-1,3-dihydro-imidazo[4,5-c]quinolin-2-one], the pIC50 was 5.96.
`COc1cc(-c2ccc3ncc4c(c3c2)n(-c2ccc(N)nc2C)c(=O)n4C)cnc1CO` [Example 30.1, 1-(6-Amino-2-methyl-pyridin-3-yl)-8-(6-hydroxymethyl-5-methoxy-pyridin-3-yl)-3-methyl-1,3-dihydro-imidazo[4,5-c]quinolin-2-one]: the pIC50 is 6.62.
Turning to `CNc1ncc(-c2ccc3ncc4c(c3c2)n(-c2ccc(N3CC[C@H](O)C3)nc2C)c(=O)n4C)cc1Cl` [Example 32.4, 8-(5-Chloro-6-methylamino-pyridin-3-yl)-1-[6-((S)-3-hydroxy-pyrrolidin-1-yl)-2-methyl-pyridin-3-yl]-3-methyl-1,3-dihydro-imidazo[4,5-c]quinolin-2-one], the pIC50 was 7.89.
As for `COc1cc(-c2ccc3ncc4c(c3c2)n(-c2ccc(N3CC[C@H](O)C3)nc2C)c(=O)n4C)cnc1CO` [Example 32.7, 8-(6-Hydroxymethyl-5-methoxy-pyridin-3-yl)-1-[6-((S)-3-hydroxy-pyrrolidin-1-yl)-2-methyl-pyridin-3-yl]-3-methyl-1,3-dihydro-imidazo[4,5-c]quinolin-2-one], the figure is 6.70; as for `CNc1ncc(-c2ccc3ncc4c(c3c2)n(-c2ccc(N3CC[C@@H](O)C3)nc2C)c(=O)n4C)cn1` [Example 34.1, 1-[6-((R)-3-Hydroxy-pyrrolidin-1-yl)-2-methyl-pyridin-3-yl]-3-methyl-8-(2-methylamino-pyrimidin-5-yl)-1,3-dihydro-imidazo[4,5-c]quinolin-2-one], 7.70; as for `CCNc1cc(-c2ccc3ncc4c(c3c2)n(-c2ccc(N3CC(F)(F)C(F)(F)C3)nc2C)c(=O)n4C)cnc1CO` [Example 35.2, 8-(5-Ethylamino-6-hydroxymethyl-pyridin-3-yl)-3-methyl-1-[2-methyl-6-(3,3,4,4-tetrafluoro-pyrrolidin-1-yl)-pyridin-3-yl]-1,3-dihydro-imidazo[4,5-c]quinolin-2-one], 8.28.
